Literature values, collected in patent publication US20060051406A1, “Formulation of insoluble small molecule therapeutics in lipid-based carriers” (priority 2004, published 2006).

Conditions: lipid transition temperature (gel to liquid crystalline phase)

SMILES	Tm [°C]
CCCCCCCCCCCCCCCC(=O)OC[C@H](COP(=O)([O-])OCC[N+](C)(C)C)OC(=O)CCCCCCCCCCCCCCC [Dipalmitoylphosphatidylcholine]	41
CCCCCCCCCCCCCCCCCC(=O)OC[C@H](COP(=O)([O-])OCC[N+](C)(C)C)OC(=O)CCCCCCCCCCCCCCCCC [Distearoylphosphatidylcholine]	55
CCCCCCCC/C=C\CCCCCCCC(=O)OC[C@H](COP(=O)([O-])OCC[N+](C)(C)C)OC(=O)CCCCCCC/C=C\CCCCCCCC [Dioleoylphosphatidylcholine, 1,2-dioleoyl-sn-glycero-3-phosphocholine]	−22
CCCCCCCCCCCCCC(=O)OC[C@H](COP(=O)([O-])OCC[N+](C)(C)C)OC(=O)CCCCCCCCCCCCC [Dimyristoylphosphatidylcholine]	23
